Measurements taken from patent US6719958B1, “Polychelants, their complexes with metal ions, their preparation and their uses” (Dibra S.p.A., priority 1996, dated 2004).

B1: Example 9: Conjugate of gadolinium complex compound (IVa) with horse heart myoglobin; Gd content 27.9 mol/mol protein (conjugate, UniProt P68082 2-154, looked up)
Myoglobin: GLSDGEWQQVLNVWGKVEADIAGHGQEVLIRLFTGHPETLEKFDKFKHLKTEAEMKASEDLKKHGTVVLTALGGILKKKGHHEAELKPLAQSHATKHKIPIKYLEFISDAIIHVLHSKHPGDFGADAQGAMTKALELFRNDIAAKYKELGFQG
modifications: gadolinium complex IVa conjugate
notes: Conjugate of gadolinium complex compound (IVa) with horse heart myoglobin; Gd content 27.9 mol/mol protein

Tests used:
[1] = Relaxivity measurement (Bruker Minispec 120, 0.5 T, 39° C.); assay type: physicochemical; conditions: on a per gadolinium basis
Procedure: For some Gd-containing products the relaxivity r1 was measured using a Bruker Minispec 120, at 0.5 T and 39° C.

[2] = according to the literature (Lauffer R. B. (1990) Magn. Reson. Quart. 2, 65-84); cited from earlier work

Molecule | Relaxivity r1 ([1]; 0.5 T and 39° C.) [s⁻¹ mM⁻¹] | also measured
O=C(O)CN1CCN(CC(=O)O)CCN(CC(=O)NCCCN(CCCC[C@H](NC(=O)OCc2ccccc2)C(=O)O)CCCNC(=O)CN2CCN(CC(=O)O)CCN(CC(=O)O)CCN(CC(=O)O)CC2)CCN(CC(=O)O)CC1 [Example 6, N^α-Carbobenzyloxy-N^ε,N^ε-bis-[4-aza-5-oxo-6-(1,4,7,10-tetraazacyclododecyl-4,7,10-triacetate)hexyl]-L-lysine] | – | Relaxivity r1 [1]: 8.35 s⁻¹ mM⁻¹
O=C([O-])CN1CCN(CC(=O)[O-])CCN(CC(=O)O)CCN(CC(=O)[O-])CC1.[Gd+3] [Gd-DOTA] | – | r1 value [2]: 3.4 mM⁻¹ s⁻¹
Gadolinium Complex of N^□,N^ε,N^ε(a)-Tris-[4-aza-5-oxo-6-(1,4,7,10-tetraazacyclododecol-4,7,10-triacetate)hexyl]-L-lysine [Example 4] | 5.25 | –
Gadolinium Complex of N^□,N^□,N^ε,N^ε-Tetrakis-[4-aza-5-oxo-6-(1,4,7,10-tetraazacyclododecyl-4,7,10-triacetate)hexyl]-L-lysine [Example 5] | 8.35 | –
B1 | 19 | –
